Test results taken from the CheMixHub ionic liquid set.
± gives the uncertainty stated by the source.

Test: xn = mol fraction of the nth substance listed
Conditions: for electrical conductivity: 101 kPa, frequency 2 MHz; for viscosity: 100 kPa

O=S(=O)([O-])C(F)(F)F.[Li+] + O=S(=O)([N-]S(=O)(=O)C(F)(F)F)C(F)(F)F.[Li+] + O
electrical conductivity (298.1 K, x2 = 0.00893, x1 = 0.003054): 2.76 ± 0.028 S/m | electrical conductivity (298.1 K, x2 = 0.01246, x1 = 0.004127): 3.46 ± 0.035 S/m | electrical conductivity (298.1 K, x2 = 0.01596, x1 = 0.005377): 4.045 ± 0.04 S/m | electrical conductivity (298.1 K, x2 = 0.01944, x1 = 0.006623): 4.522 ± 0.045 S/m | electrical conductivity (298.1 K, x2 = 0.05129, x1 = 0.0177): 6.08 ± 0.061 S/m | electrical conductivity (298.1 K, x2 = 0.08265, x1 = 0.02921): 5.326 ± 0.053 S/m | electrical conductivity (298.1 K, x2 = 0.112, x1 = 0.04029): 4.123 ± 0.041 S/m | electrical conductivity (298.1 K, x2 = 0.1395, x1 = 0.05129): 3.035 ± 0.03 S/m | electrical conductivity (298.1 K, x2 = 0.1654, x1 = 0.06203): 2.18 ± 0.022 S/m | electrical conductivity (298.1 K, x2 = 0.1898, x1 = 0.07238): 1.55 ± 0.016 S/m | electrical conductivity (298.1 K, x2 = 0.2128, x1 = 0.08265): 1.09 ± 0.011 S/m | electrical conductivity (298.1 K, x2 = 0.2345, x1 = 0.0927): 0.768 ± 0.008 S/m | electrical conductivity (298.1 K, x2 = 0.2551, x1 = 0.1024): 0.537 ± 0.005 S/m | electrical conductivity (298.1 K, x2 = 0.2745, x1 = 0.112): 0.374 ± 0.004 S/m | viscosity (298.15 K, x1 = 0.04029, x2 = 0.1114): 7.5 ± 0.6 mPa·s | viscosity (298.15 K, x1 = 0.07222, x2 = 0.1893): 29.1 ± 2.3 mPa·s | viscosity (298.15 K, x1 = 0.09226, x2 = 0.2336): 69 ± 6 mPa·s | viscosity (298.15 K, x1 = 0.1024, x2 = 0.2553): 98 ± 8 mPa·s | viscosity (298.15 K, x1 = 0.1122, x2 = 0): 3.7 ± 0.3 mPa·s | viscosity (298.15 K, x1 = 0.1122, x2 = 0.2745): 152 ± 13 mPa·s | viscosity (298.15 K, x1 = 0.1783, x2 = 0): 9.2 ± 0.7 mPa·s | viscosity (298.15 K, x1 = 0.2388, x2 = 0): 21.9 ± 1.8 mPa·s | viscosity (298.15 K, x1 = 0.2541, x2 = 0): 31.8 ± 2.6 mPa·s | viscosity (298.15 K, x1 = 0.2743, x2 = 0): 47.2 ± 3.8 mPa·s | electrical conductivity (303 K, x2 = 0.001799, x1 = 0.0005943): 0.867 ± 0.009 S/m | electrical conductivity (303 K, x2 = 0.005377, x1 = 0.001799): 2.117 ± 0.021 S/m | electrical conductivity (303 K, x2 = 0.00893, x1 = 0.003054): 3.1 ± 0.031 S/m | electrical conductivity (303 K, x2 = 0.01246, x1 = 0.004127): 3.9 ± 0.039 S/m | electrical conductivity (303 K, x2 = 0.01596, x1 = 0.005377): 4.56 ± 0.046 S/m | electrical conductivity (303 K, x2 = 0.01944, x1 = 0.006623): 5.1 ± 0.051 S/m | electrical conductivity (303 K, x2 = 0.05129, x1 = 0.0177): 6.85 ± 0.069 S/m | electrical conductivity (303 K, x2 = 0.08265, x1 = 0.02921): 6.011 ± 0.06 S/m | electrical conductivity (303 K, x2 = 0.112, x1 = 0.04029): 4.67 ± 0.047 S/m | electrical conductivity (303 K, x2 = 0.1395, x1 = 0.05129): 3.45 ± 0.035 S/m | electrical conductivity (303 K, x2 = 0.1654, x1 = 0.06203): 2.5 ± 0.025 S/m | electrical conductivity (303 K, x2 = 0.1898, x1 = 0.07238): 1.79 ± 0.018 S/m | electrical conductivity (303 K, x2 = 0.2128, x1 = 0.08265): 1.28 ± 0.013 S/m | electrical conductivity (303 K, x2 = 0.2345, x1 = 0.0927): 0.908 ± 0.009 S/m | electrical conductivity (303 K, x2 = 0.2551, x1 = 0.1024): 0.643 ± 0.006 S/m | electrical conductivity (303 K, x2 = 0.2745, x1 = 0.112): 0.454 ± 0.005 S/m | electrical conductivity (308.1 K, x2 = 0.001799, x1 = 0.0005943): 0.961 ± 0.01 S/m | electrical conductivity (308.1 K, x2 = 0.005377, x1 = 0.001799): 2.36 ± 0.024 S/m | electrical conductivity (308.1 K, x2 = 0.00893, x1 = 0.003054): 3.46 ± 0.035 S/m | electrical conductivity (308.1 K, x2 = 0.01246, x1 = 0.004127): 4.36 ± 0.044 S/m | electrical conductivity (308.1 K, x2 = 0.01596, x1 = 0.005377): 5.1 ± 0.051 S/m | electrical conductivity (308.1 K, x2 = 0.01944, x1 = 0.006623): 5.702 ± 0.057 S/m | electrical conductivity (308.1 K, x2 = 0.05129, x1 = 0.0177): 7.67 ± 0.077 S/m | electrical conductivity (308.1 K, x2 = 0.08265, x1 = 0.02921): 6.732 ± 0.067 S/m | electrical conductivity (308.1 K, x2 = 0.112, x1 = 0.04029): 5.239 ± 0.052 S/m | electrical conductivity (308.1 K, x2 = 0.1395, x1 = 0.05129): 3.89 ± 0.039 S/m | electrical conductivity (308.1 K, x2 = 0.1654, x1 = 0.06203): 2.839 ± 0.028 S/m | electrical conductivity (308.1 K, x2 = 0.1898, x1 = 0.07238): 2.05 ± 0.021 S/m | electrical conductivity (308.1 K, x2 = 0.2128, x1 = 0.08265): 1.48 ± 0.015 S/m | electrical conductivity (308.1 K, x2 = 0.2345, x1 = 0.0927): 1.06 ± 0.011 S/m | electrical conductivity (308.1 K, x2 = 0.2551, x1 = 0.1024): 0.763 ± 0.008 S/m | electrical conductivity (308.1 K, x2 = 0.2745, x1 = 0.112): 0.545 ± 0.005 S/m | viscosity (308.15 K, x1 = 0.04029, x2 = 0.1114): 5.6 ± 0.5 mPa·s | viscosity (308.15 K, x1 = 0.07222, x2 = 0.1893): 20.6 ± 1.7 mPa·s | viscosity (308.15 K, x1 = 0.09226, x2 = 0.2336): 45.7 ± 3.7 mPa·s | viscosity (308.15 K, x1 = 0.1024, x2 = 0.2553): 63 ± 5 mPa·s | viscosity (308.15 K, x1 = 0.1122, x2 = 0): 2.9 ± 0.2 mPa·s | viscosity (308.15 K, x1 = 0.1122, x2 = 0.2745): 94.6 ± 7.8 mPa·s | viscosity (308.15 K, x1 = 0.1783, x2 = 0): 6.9 ± 0.6 mPa·s | viscosity (308.15 K, x1 = 0.2388, x2 = 0): 16 ± 1.3 mPa·s | viscosity (308.15 K, x1 = 0.2541, x2 = 0): 22.6 ± 1.8 mPa·s | viscosity (308.15 K, x1 = 0.2743, x2 = 0): 32.9 ± 2.6 mPa·s | electrical conductivity (313 K, x2 = 0.001799, x1 = 0.0005943): 1.06 ± 0.011 S/m | electrical conductivity (313 K, x2 = 0.005377, x1 = 0.001799): 2.61 ± 0.026 S/m | electrical conductivity (313 K, x2 = 0.00893, x1 = 0.003054): 3.835 ± 0.038 S/m | electrical conductivity (313 K, x2 = 0.01246, x1 = 0.004127): 4.834 ± 0.048 S/m | electrical conductivity (313 K, x2 = 0.01596, x1 = 0.005377): 5.66 ± 0.057 S/m | electrical conductivity (313 K, x2 = 0.01944, x1 = 0.006623): 6.331 ± 0.063 S/m | electrical conductivity (313 K, x2 = 0.05129, x1 = 0.0177): 8.518 ± 0.085 S/m | electrical conductivity (313 K, x2 = 0.08265, x1 = 0.02921): 7.48 ± 0.075 S/m | electrical conductivity (313 K, x2 = 0.112, x1 = 0.04029): 5.838 ± 0.058 S/m | electrical conductivity (313 K, x2 = 0.1395, x1 = 0.05129): 4.36 ± 0.044 S/m | electrical conductivity (313 K, x2 = 0.1654, x1 = 0.06203): 3.201 ± 0.032 S/m | electrical conductivity (313 K, x2 = 0.1898, x1 = 0.07238): 2.334 ± 0.023 S/m | electrical conductivity (313 K, x2 = 0.2128, x1 = 0.08265): 1.7 ± 0.017 S/m | electrical conductivity (313 K, x2 = 0.2345, x1 = 0.0927): 1.234 ± 0.012 S/m | electrical conductivity (313 K, x2 = 0.2551, x1 = 0.1024): 0.895 ± 0.009 S/m | electrical conductivity (313 K, x2 = 0.2745, x1 = 0.112): 0.647 ± 0.006 S/m
